Reference: US11866518B2, “Bicyclic peptide ligands specific for TSLP” (BicycleTx Limited, priority 2020, dated 2024)
*1 amine or outer side, *2 acyl side, *3 side chain or, on linkers, in order; H or OH if unused. Where a SMILES comes first, the peptide text is derived from it. Bridges are numbered along the chain shown (N, C = ends). [ ]: non-standard residue; d: D form. TATA = O=C(CC[*:1])N1CN(C(=O)CC[*:2])CN(C(=O)CC[*:3])C1; Dap = NC[C@H](N)C(=O)O

molecular target: TSLP (Homo sapiens, UniProt Q969D9); experiment: Human TSLP Surface Plasmon Resonance (SPR) binding assay; design: The resulting construct spCD33-6×HN-TEV-hTSLP(29-159)-Avi; 6xHN tag with TEV site (N, cleaved yes); made in house; host or cells: Expi293F cells; conditions: biotinylated human TSLP immobilized on streptavidin chip; 20° C.; steady-state or kinetic 1:1 fit; read-out: hTSLP SPR Kd
Sequence (Q969D9 29-159): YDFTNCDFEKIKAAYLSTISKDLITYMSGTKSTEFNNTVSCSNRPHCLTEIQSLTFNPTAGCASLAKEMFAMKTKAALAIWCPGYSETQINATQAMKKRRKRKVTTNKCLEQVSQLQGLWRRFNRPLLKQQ

In order of falling Kd:
1. CC(=O)N[C@H]1CSCCC(=O)N2CN3CN(C2)C(=O)CCSC[C@H](NC(=O)[C@H](CC(N)=O)NC(=O)[C@H](CCC(=O)O)NC(=O)[C@H](CC(C)C)NC(=O)[C@H](Cc2c[nH]c4ccccc24)NC(=O)[C@H](Cc2c[nH]cn2)NC1=O)C(=O)N[C@@H](Cc1c[nH]c2ccccc12)C(=O)N[C@@H](CN)C(=O)NCC(=O)N[C@@H](Cc1ccccc1)C(=O)N[C@H](C(N)=O)CSCCC3=O [Example 159, Ac-(SEQ ID NO: 117)] (Ac-CHWLENCW[Dap]GFC-NH2; linker 1-7-12 via TATA; C-terminus assumed)  5600 nM
2. CC(=O)N[C@H]1CSCCC(=O)N2CN3CN(C2)C(=O)CCSC[C@H](NC(=O)[C@H](CC(=O)O)NC(=O)[C@H](CCC(=O)O)NC(=O)[C@H](CC(C)C)NC(=O)[C@H](Cc2c[nH]c4ccccc24)NC(=O)[C@H](CCC(N)=O)NC1=O)C(=O)N[C@@H](Cc1c[nH]c2ccccc12)C(=O)N[C@@H](CCCNC(=N)N)C(=O)NCC(=O)N[C@@H](Cc1cccnc1)C(=O)N[C@H](C(N)=O)CSCCC3=O [Example 158, Ac-(SEQ ID NO: 116)]  5400 nM
3. CC(=O)N[C@H]1CSCCC(=O)N2CN3CN(C2)C(=O)CCSC[C@H](NC(=O)[C@H](CC(=O)O)NC(=O)[C@H](CCC(=O)O)NC(=O)[C@H](CC(C)C)NC(=O)[C@H](Cc2c[nH]c4ccccc24)NC(=O)[C@H](CCC(N)=O)NC1=O)C(=O)N[C@@H](Cc1c[nH]c2ccccc12)C(=O)N[C@@H](CCCNC(=N)N)C(=O)NCC(=O)N[C@@H](Cc1ccncc1)C(=O)N[C@H](C(N)=O)CSCCC3=O [Example 157, Ac-(SEQ ID NO: 115)]  3900 nM
4. CC(C)C[C@@H]1NC(=O)[C@H](Cc2c[nH]c3ccccc23)NC(=O)[C@H](CCC(N)=O)NC(=O)[C@@H](N)CSCCC(=O)N2CN3CN(C2)C(=O)CCSC[C@H](NC(=O)[C@H](CC(=O)O)NC(=O)[C@H](CCC(=O)O)NC1=O)C(=O)N[C@@H](Cc1c[nH]c2ccccc12)C(=O)N[C@@H](CN)C(=O)NCC(=O)N[C@@H](Cc1ccccc1)C(=O)N[C@H](C(N)=O)CSCCC3=O [Example 156, (SEQ ID NO: 114)]  3300 nM
5. CC(=O)N[C@H]1CSCCC(=O)N2CN3CN(C2)C(=O)CCSC[C@H](NC(=O)[C@H](CC(=O)O)NC(=O)[C@H](CCC(=O)O)NC(=O)[C@H](CC(C)C)NC(=O)[C@H](Cc2c[nH]c4ccccc24)NC(=O)[C@H](CCC(N)=O)NC1=O)C(=O)N[C@@H](Cc1c[nH]c2ccccc12)C(=O)N[C@@H](CN)C(=O)NCC(=O)N[C@@H](Cc1ccccc1)C(=O)N[C@H](C(N)=O)CSCCC3=O [Example 155, Ac-(SEQ ID NO: 114)]  3200 nM
6. CC(=O)N[C@H]1CSCCC(=O)N2CN3CN(C2)C(=O)CCSC[C@H](NC(=O)[C@H](CC(=O)O)NC(=O)[C@H](CCC(=O)O)NC(=O)[C@H](CC(C)C)NC(=O)[C@H](Cc2c[nH]c4ccccc24)NC(=O)[C@H](CCC(N)=O)NC1=O)C(=O)N[C@@H](Cc1c[nH]c2ccccc12)C(=O)N[C@@H](CCCNC(=N)N)C(=O)NCC(=O)N[C@@H](Cc1c(F)c(F)c(F)c(F)c1F)C(=O)N[C@H](C(N)=O)CSCCC3=O [Example 153, Ac-(SEQ ID NO: 112)]  2700 nM
7. CC[C@H](C)[C@@H]1NC(=O)[C@H]([C@@H](C)O)NC(=O)[C@@H](NC(=O)[C@H](C)N)CSCCC(=O)N2CN3CN(C2)C(=O)CCSC[C@H](NC(=O)[C@H](CC(=O)O)NC(=O)[C@H](CCC(=O)O)NC(=O)[C@H](CC(C)C)NC1=O)C(=O)N[C@@H](Cc1c[nH]c2ccccc12)C(=O)N[C@@H](CCSC)C(=O)NCC(=O)N[C@@H](Cc1ccccc1)C(=O)N[C@H](C(=O)N[C@@H](C)C(N)=O)CSCCC3=O [Example 150, A-(SEQ ID NO: 109)-A]  1500 nM
8. CC(C)C[C@@H]1NC(=O)[C@H](CO)NC(=O)[C@@H]2CCCN2C(=O)[C@@H](NC(=O)[C@H](C)N)CSCCC(=O)N2CN3CN(C2)C(=O)CCSC[C@H](NC(=O)[C@H]([C@@H](C)O)NC(=O)[C@H](Cc2c[nH]c4ccccc24)NC(=O)[C@@H]2CCCN2C(=O)[C@H](CC(=O)O)NC1=O)C(=O)N[C@@H](CCC(N)=O)C(=O)N[C@@H](CO)C(=O)N[C@@H](Cc1c[nH]c2ccccc12)C(=O)N[C@@H](Cc1ccc(O)cc1)C(=O)N[C@@H](CCC(=O)O)C(=O)N[C@H](C(=O)N[C@@H](C)C(N)=O)CSCCC3=O [Example 162, A-(SEQ ID NO: 120)-A]  1500 nM
9. CC(=O)N[C@H]1CSCCC(=O)N2CN3CN(C2)C(=O)CCSC[C@H](NC(=O)[C@H](CC(=O)O)NC(=O)[C@H](CCC(=O)O)NC(=O)[C@H](CC(C)C)NC(=O)[C@H](Cc2c[nH]c4ccccc24)NC(=O)[C@H](CCC(N)=O)NC1=O)C(=O)N[C@@H](Cc1c[nH]c2ccccc12)C(=O)N[C@@H](C)C(=O)NCC(=O)N[C@@H](Cc1ccccc1)C(=O)N[C@H](C(N)=O)CSCCC3=O [Example 149, Ac-(SEQ ID NO: 108)]  1100 nM
10. CC(C)C[C@@H]1NC(=O)[C@H](CO)NC(=O)[C@H](CCC(=O)O)NC(=O)[C@@H](NC(=O)[C@H](C)N)CSCCC(=O)N2CN3CN(C2)C(=O)CCSC[C@H](NC(=O)[C@H](CO)NC(=O)[C@H](Cc2c[nH]c4ccccc24)NC(=O)[C@@H]2CCCN2C(=O)[C@H](CC(=O)O)NC1=O)C(=O)N1CCC[C@H]1C(=O)N[C@@H](C(C)C)C(=O)N[C@@H](Cc1c[nH]c2ccccc12)C(=O)N[C@@H](Cc1c[nH]c2ccccc12)C(=O)N[C@@H](CCCNC(=N)N)C(=O)N[C@H](C(=O)N[C@@H](C)C(N)=O)CSCCC3=O [Example 161, A-(SEQ ID NO: 119)-A] (H-ACESLDPWSCPVWWRCA-NH2; linker 2-10-16 via TATA; N-terminus and C-terminus assumed)  890 nM
11. CC(C)C[C@@H]1NC(=O)[C@H](CC(=O)O)NC(=O)[C@H](CCCCN)NC(=O)[C@@H](NC(=O)[C@H](C)N)CSCCC(=O)N2CN3CN(C2)C(=O)CCSC[C@H](NC(=O)[C@H]([C@@H](C)O)NC(=O)[C@H](Cc2c[nH]c4ccccc24)NC(=O)[C@@H]2CCCN2C(=O)[C@H](CC(=O)O)NC1=O)C(=O)N[C@@H](CO)C(=O)N[C@@H](CO)C(=O)N[C@@H](Cc1c[nH]c2ccccc12)C(=O)N[C@@H](Cc1c[nH]c2ccccc12)C(=O)N[C@@H](CCC(=O)O)C(=O)N[C@H](C(=O)N[C@@H](C)C(=O)N1CCC[C@H]1C(=O)N[C@@H](CC(N)=O)C(N)=O)CSCCC3=O [Example 167, A-(SEQ ID NO: 125)-APN] (H-ACKDLDPWTCSSWWECAPN-NH2; linker 2-10-16 via TATA; N-terminus assumed)  170 nM
12. CC(C)C[C@@H]1NC(=O)[C@H](Cc2c[nH]c3ccccc23)NC(=O)[C@H](Cc2c[nH]c3ccccc23)NC(=O)[C@H](CCC(=O)O)NC(=O)[C@H](CCC(=O)O)NC(=O)[C@@H]2CSCCC(=O)N3CN(CN(C3)C(=O)CCSC[C@@H](C(=O)N[C@@H](C)C(=O)N[C@@H](Cc3c[nH]cn3)C(=O)N3CCC[C@H]3C(N)=O)NC1=O)C(=O)CCSC[C@H](NC(=O)[C@H](C)N)C(=O)N[C@@H](CCCNC(=N)N)C(=O)N[C@@H](CC(=O)O)C(=O)N[C@@H](CC(C)C)C(=O)N[C@@H](CC(=O)O)C(=O)N1CCC[C@H]1C(=O)N[C@@H](Cc1c[nH]c3ccccc13)C(=O)N[C@@H]([C@@H](C)O)C(=O)N2 [Example 170, A-(SEQ ID NO: 128)-AHP] (H-ACRDLDPWTCEEWWLCAHP-NH2; linker 2-10-16 via TATA; N-terminus and C-terminus assumed)  170 nM
